According to US12552783B2, “Modulators of proteolysis and associated methods of use” (Arvinas Operations, Inc., priority 2018, dated 2026):

Molecular target: KRas (Homo sapiens, UniProt P01116, G12C)
Experiment: KRas degradation in SW1573 cells by Western blot, normalized to GAPDH (data of Table 14)
Type: cell-based
Conditions: SW1573 cells
Summary of the method: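 SW1573 cells, homozygous for the KRas G12C mutation and maintained in DMEM with 10% FBS and 1% penicillin-streptomycin, were seeded in 12-well plates, allowed to attach overnight at 37° C. under 5% CO2, then serum-starved for 24 hours before compound exposure. KRas levels were measured by Western blot, normalized to GAPDH, and compared with DMSO controls to give percent degradation, DC50 and Dmax.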

SMILES	Percent Degradation at Indicated Concentration (μM) (0.1 μM)	Percent Degradation at Indicated Concentration (μM) (0.3 μM)	Percent Degradation at Indicated Concentration (μM) (1 μM)	Dmax [%]	Percent Degradation at Indicated Concentration (μM) (0.03 μM)	Percent Degradation at Indicated Concentration (μM) (3 μM)
C=CC(=O)N1CCN(c2nc(O[C@H](C)CN3CCC(OCCOCCOCCOCCOCCOc4cc(-c5scnc5C)ccc4CNC(=O)[C@@H]4C[C@@H](O)CN4C(=O)[C@H](c4cc(C)no4)C(C)C)CC3)nc3c2CCN(c2cc(O)cc4ccccc24)C3)CC1 [compound 444]	C (Percent Degradation: C ≤ 35)	C (Percent Degradation: C ≤ 35)	C (Percent Degradation: C ≤ 35)			
C=CC(=O)N1CCN(c2nc(OC3CCN(CCOCCN4CCN(CC(=O)N[C@H](C(=O)N5C[C@H](O)C[C@H]5C(=O)N[C@@H](C)c5ccc(-c6scnc6C)cc5)C(C)(C)C)CC4)CC3)nc3c(F)c(-c4cc(O)cc5ccccc45)c(Cl)cc23)CC1 [compound 475, (2S,4R)-1-((2S)-2-(2-(4-(2-(2-(4-((4-(4-acryloylpiperazin-1-yl)-6-chloro-8-fluoro-7-(3-hydroxynaphthalen-1-yl)quinazolin-2-yl)oxy)piperidin-1-yl)ethoxy)ethyl)piperazin-1-yl)acetamido)-3,3-dimethylbutanoyl)-4-hydroxy-N-((S)-1-(4-(4-methylthiazol-5-yl)phenyl)ethyl)pyrrolidine-2-carboxamide]	C (Percent Degradation: C ≤ 35)	C (Percent Degradation: C ≤ 35)	C (Percent Degradation: C ≤ 35)			
C=CC(=O)N1CCN(c2nc(OC[C@@H]3C[C@@H](OCCOCCOCCOCCOCC(=O)N[C@H](C(=O)N4C[C@H](O)C[C@H]4C(=O)N[C@@H](C)c4ccc(-c5scnc5C)cc4)C(C)(C)C)CN3C)nc3c2CCN(c2cccc4ccccc24)C3)C[C@@H]1CC#N [compound 480]	C (Percent Degradation: C ≤ 35)	C (Percent Degradation: C ≤ 35)	C (Percent Degradation: C ≤ 35)			
C=CC(=O)N1CCN(c2nc(OC[C@@H]3C[C@@H](OCCOCCOc4ccc5c(c4)C(=O)N(C4CCC(=O)NC4=O)C5=O)CN3C)nc3c2CCN(c2cccc4ccccc24)C3)C[C@@H]1CC#N (stereo partly drawn) [compound 503, 2-((2S)-1-acryloyl-4-(2-(((2S,4R)-4-(2-(2-((2-(2,6-dioxopiperidin-3-yl)-1,3-dioxoisoindolin-5-yl)oxy)ethoxy)ethoxy)-1-methylpyrrolidin-2-yl)methoxy)-7-(naphthalen-1-yl)-5,6,7,8-tetrahydropyrido[3,4-d]pyrimidin-4-yl)piperazin-2-yl)acetonitrile]	C (Percent Degradation: C ≤ 35)	C (Percent Degradation: C ≤ 35)	C (Percent Degradation: C ≤ 35)		C (Percent Degradation: C ≤ 35)	
C=CC(=O)N1CCN(c2nc(OC[C@@H]3C[C@@H](OCCOCCOCCOCCOCCOc4ccc5c(c4)C(=O)N(C4CCC(=O)NC4=O)C5=O)CN3C)nc3c2CCN(c2cccc4ccccc24)C3)C[C@@H]1CC#N (stereo partly drawn) [compound 505, 2-((2S)-1-acryloyl-4-(2-(((2S,4R)-4-((14-((2-(2,6-dioxopiperidin-3-yl)-1,3-dioxoisoindolin-5-yl)oxy)-3,6,9,12-tetraoxatetradecyl)oxy)-1-methylpyrrolidin-2-yl)methoxy)-7-(naphthalen-1-yl)-5,6,7,8-tetrahydropyrido[3,4-d]pyrimidin-4-yl)piperazin-2-yl)acetonitrile]	C (Percent Degradation: C ≤ 35)	C (Percent Degradation: C ≤ 35)			C (Percent Degradation: C ≤ 35)	

Results, then the compound that gave them:

Percent Degradation at Indicated Concentration (μM) (0.1 μM)	Percent Degradation at Indicated Concentration (μM) (0.3 μM)	Percent Degradation at Indicated Concentration (μM) (1 μM)	Dmax [%]	Percent Degradation at Indicated Concentration (μM) (0.03 μM)	Percent Degradation at Indicated Concentration (μM) (3 μM)	SMILES
C (Percent Degradation: C ≤ 35)	C (Percent Degradation: C ≤ 35)	C (Percent Degradation: C ≤ 35)				C=CC(=O)N1CCN(c2nc(O[C@H](C)CN3CCC(OCCOCCOCCOc4cc(-c5scnc5C)ccc4CNC(=O)[C@@H]4C[C@@H](O)CN4C(=O)[C@@H](c4cc(C)no4)C(C)C)CC3)nc3c2CCN(c2cc(O)cc4ccccc24)C3)CC1 [compound 440, (2S,4R)-N-(2-(2-(2-(2-((1-((R)-2-((4-(4-acryloylpiperazin-1-yl)-7-(3-hydroxynaphthalen-1-yl)-5,6,7,8-tetrahydropyrido[3,4-d]pyrimidin-2-yl)oxy)propyl)piperidin-4-yl)oxy)ethoxy)ethoxy)ethoxy)-4-(4-methylthiazol-5-yl)benzyl)-4-hydroxy-1-((R)-3-methyl-2-(3-methylisoxazol-5-yl)butanoyl)pyrrolidine-2-carboxamide]
C (Percent Degradation: C ≤ 35)	C (Percent Degradation: C ≤ 35)	C (Percent Degradation: C ≤ 35)				C=CC(=O)N1CCN(c2nc(O[C@H](C)CN3CCC(OCCOCCOCCOc4cc(-c5scnc5C)ccc4CNC(=O)[C@@H]4C[C@@H](O)CN4C(=O)[C@H](c4cc(C)no4)C(C)C)CC3)nc3c2CCN(c2cc(O)cc4ccccc24)C3)CC1 [compound 441, (2S,4R)-N-(2-(2-(2-(2-((1-((R)-2-((4-(4-acryloylpiperazin-1-yl)-7-(3-hydroxynaphthalen-1-yl)-5,6,7,8-tetrahydropyrido[3,4-d]pyrimidin-2-yl)oxy)propyl)piperidin-4-yl)oxy)ethoxy)ethoxy)ethoxy)-4-(4-methylthiazol-5-yl)benzyl)-4-hydroxy-1-((S)-3-methyl-2-(3-methylisoxazol-5-yl)butanoyl)pyrrolidine-2-carboxamide]
C (Percent Degradation: C ≤ 35)	C (Percent Degradation: C ≤ 35)	C (Percent Degradation: C ≤ 35)				C=CC(=O)N1CCN(c2nc(O[C@H](C)CN3CCC(OCCOCCOCCOCCOc4cc(-c5scnc5C)ccc4CNC(=O)[C@@H]4C[C@@H](O)CN4C(=O)[C@@H](c4cc(C)no4)C(C)C)CC3)nc3c2CCN(c2cc(O)cc4ccccc24)C3)CC1 [compound 442]
C (Percent Degradation: C ≤ 35)	C (Percent Degradation: C ≤ 35)	C (Percent Degradation: C ≤ 35)				C=CC(=O)N1CCN(c2nc(O[C@H](C)CN3CCC(OCCOCCOCCOCCOc4cc(-c5scnc5C)ccc4CNC(=O)[C@@H]4C[C@@H](O)CN4C(=O)[C@H](c4cc(C)no4)C(C)C)CC3)nc3c2CCN(c2cc(O)cc4ccccc24)C3)CC1 [compound 443, (2S,4R)-N-(2-(2-(2-(2-(2-((1-((R)-2-((4-(4-acryloylpiperazin-1-yl)-7-(3-hydroxynaphthalen-1-yl)-5,6,7,8-tetrahydropyrido[3,4-d]dipyrimidin-2-yl)oxy)propyl)piperidin-4-yl)oxy)ethoxy)ethoxy)ethoxy)ethoxy)-4-(4-methylthiazol-5-yl)benzyl)-4-hydroxy-1-((S)-3-methyl-2-(3-methylisoxazol-5-yl)butanoyl)pyrrolidine-2-carboxamide]
C (Percent Degradation: C ≤ 35)	C (Percent Degradation: C ≤ 35)	B (35 < B < 70)	35 to 70			C=CC(=O)N1CCN(c2nc(OC[C@@H]3C[C@@H](OCCOCCOCCOCCOc4ccc5c(c4)C(=O)N(C4CCC(=O)NC4=O)C5=O)CN3C)nc3c2CCN(c2cccc4ccccc24)C3)C[C@@H]1CC#N (stereo partly drawn) [compound 481, 2-((2S)-1-acryloyl-4-(2-(((2S,4R)-4-(2-(2-(2-(2-((2-(2,6-dioxopiperidin-3-yl)-1,3-dioxoisoindolin-5-yl)oxy)ethoxy)ethoxy)ethoxy)ethoxy)-1-methylpyrrolidin-2-yl)methoxy)-7-(naphthalen-1-yl)-5,6,7,8-tetrahydropyrido[3,4-d]dipyrimidin-4-yl)piperazin-2-yl)acetonitrile]
B (35 < B < 70)	A (A > 70)	C (Percent Degradation: C ≤ 35)	≥ 70			C=CC(=O)N1CCN(c2nc(OC[C@@H]3C[C@@H](OCCOCCOCCOc4ccc5c(c4)C(=O)N(C4CCC(=O)NC4=O)C5=O)CN3C)nc3c2CCN(c2cccc4ccccc24)C3)C[C@@H]1CC#N (stereo partly drawn) [compound 504, 2-((2S)-1-acryloyl-4-(2-(((2S,4R)-4-(2-(2-(2-((2-(2,6-dioxopiperidin-3-yl)-1,3-dioxoisoindolin-5-yl)oxy)ethoxy)ethoxy)ethoxy)-1-methylpyrrolidin-2-yl)methoxy)-7-(naphthalen-1-yl)-5,6,7,8-tetrahydropyrido[3,4-d]pyrimidin-4-yl)piperazin-2-yl)acetonitrile]
	C (Percent Degradation: C ≤ 35)	C (Percent Degradation: C ≤ 35)			C (Percent Degradation: C ≤ 35)	C[C@H](CN1CCC(OCCOCCOCCOCCOCCOc2ccc3c(c2)C(=O)N(C2CCC(=O)NC2=O)C3=O)CC1)Oc1nc(N2CCN(C(=O)C(O)O)CC2)c2cc(Cl)c(-c3cc(O)cc4ccccc34)c(F)c2n1 (stereo partly drawn) [compound 515, 5-((14-((1-((2R)-2-((6-chloro-4-(4-(2,2-dihydroxyacetyl)piperazin-1-yl)-8-fluoro-7-(3-hydroxynaphthalen-1-yl)quinazolin-2-yl)oxy)propyl)piperidin-4-yl)oxy)-3,6,9,12-tetraoxatetradecyl)oxy)-2-(2,6-dioxopiperidin-3-yl)isoindoline-1,3-dione]
